Source: US20250388632A1, “ANNEXIN A1-DERIVED POLYPEPTIDE ANALOGUES” (RESOTHER PHARMA A/S, priority 2022, published 2025)
Values joined by “and” are separate entries in the source; they are usually repeats but may differ in a detail not shown here. Identical values can stand only once.

Tests used:
[1] = system: polymorphonuclear leukocytes (PMNs); experiment: PMN (neutrophil) chemotaxis, Transwell migration, CellTiter Glo readout; type: cell-based, human; conditions: 10 uM compound in receiver wells; 1 h migration, 37 °C; PMNs from buffy coats of healthy volunteers
Protocol: AnxA1 N-terminal fragments were assessed in polymorphonuclear leukocytes (PMNs) isolated from buffy coats of healthy volunteers. PMNs were resuspended in migration medium (RPMI1640 (ATCC, Cat. No. 30-2001)+0.05% BSA-FAF) to a concentration of 5.5×10^6 cells/mL.
Receiver wells of a Transwell plate were filled with 200 μL of migration medium with 10 uM of compound 1, 2 or 3. Donor plate was inserted and 75 μL of cell suspension was added to upper wells ([…]). Plates were incubated for 1 h (37° C., 5% CO2, 95% humidity). The number of migrated cells was assessed by removing Transwell insert with cells from the plate in order to stop migration, followed by addition of 200 μL CellTiter Glo reagent to lower wells. Plates were incubated for 10 minutes in the dark (at room temperature), and 200 μL was transferred to white 96 well plates (Lumitrac 200). Luminescence was measured by use of EnVision 2104 (Perkin Elmer) (exposition time 0.1 s)
The chemotaxis response was estimated by calculating fold change compared to negative control (vehicle).

monocytes = experiment: Whole blood monocyte phagocytosis assay (pHrodo E. coli BioParticles, flow cytometry); type: cell-based; conditions: human whole blood, 1 h incubation, then pHrodo E. coli BioParticles 30 min, mean of four experiments
Protocol: AnxA1 N-terminal fragments were assessed in whole blood phagocytosis assay. Whole blood from human subjects (45 μL) was incubated for 1 h with control peptide Anxa1 2-50 (100 nM) and test peptides Compound 1 (100 nM), Compound 2 (100 nM) and Compound 3 (30 nM), or vehicle in a 96-well plate. 50 μl pHrodo E. coli BioParticles Conjugate (5 μg/well) was added to the wells, and the plate was incubated at 37° C., 5% CO2 for 30 min. 150 μl of 4% PFA was added, and the plate incubated at 4° C. for 30 min. 30 μL from each well of the 96-well plate was transferred into flow cytometry tubes with 500 μL RPMI 1640 and 1 μL of Vybrant DyeCycle dye. Tubes were incubated for 30 min at 37° C. and 5% CO2, followed by addition of 2.5 mL of RPMI 1640 Medium in each tube.
Samples were acquired on the Attune NxT Flow Cytometer. Monocyte phagocytosis was determined as an increase in pHrodo Green fluorescence relative to control sample.

Sequence	Fold increase relative to vehicle (PMN chemotaxis) [1]	Fold increase relative to vehicle (monocyte phagocytosis) (monocytes; peptide 100 nM) [fold]	Fold increase relative to vehicle (monocyte phagocytosis) (monocytes; peptide 100 nM, listed as AnxA1 2-50) [fold]	Fold increase relative to vehicle (monocyte phagocytosis) (monocytes; peptide 30 nM) [fold]
AMVSEFLKQAWFIENEEQEYVQTLKSSK (Val24Leu variant of AnxA1 fragment; MISC_FEATURE - Val24Leu variant of AnxA1 fragment) [Compound 1]	3 fold and 3.1 fold	2.6	–	–
AMVSEFLKQAWFIENEEQEYVQTVKSSKGGPGSAVSPYPTFNPSSDVAA (Synthetic sequence having some homology with human annexin 1) [Anxa1 2-50, reference compound]	–	1.9	~2	–
AMVSEFLKQAWFIENEEQEYVQTLKSSKGGPGSAVSPY (Val24Leu variant of AnxA1 fragment; MISC_FEATURE - Val24Leu variant of AnxA1 fragment) [Compound 3]	1.6 fold	–	–	2.9
AMVSEFLKQAWFIENEEQEYVQTLKSSKGGPGS (Val24Leu variant of AnxA1 fragment; MISC_FEATURE - Val24Leu variant of AnxA1 fragment) [Compound 2]	2 fold and 2.0 fold	2.8	–	–
